Measurements as given in ChEMBL document CHEMBL1777737, “Solid phase synthesis of tariquidar-related modulators of ABC transporters preferring breast cancer resistance protein (ABCG2)” (Bioorg Med Chem Lett, 2011).

Columns and labels:
Assay type in all cases: cell-based
[1] = target: T1, Broad substrate specificity ATP-binding cassette transporter ABCG2 (Homo sapiens, UniProt Q9UNQ0); test: Inhibition of ABCG2 expressed in human MCF7/Topo cells by Hoechst microplate assay
T1 sequence (Q9UNQ0 whole entry): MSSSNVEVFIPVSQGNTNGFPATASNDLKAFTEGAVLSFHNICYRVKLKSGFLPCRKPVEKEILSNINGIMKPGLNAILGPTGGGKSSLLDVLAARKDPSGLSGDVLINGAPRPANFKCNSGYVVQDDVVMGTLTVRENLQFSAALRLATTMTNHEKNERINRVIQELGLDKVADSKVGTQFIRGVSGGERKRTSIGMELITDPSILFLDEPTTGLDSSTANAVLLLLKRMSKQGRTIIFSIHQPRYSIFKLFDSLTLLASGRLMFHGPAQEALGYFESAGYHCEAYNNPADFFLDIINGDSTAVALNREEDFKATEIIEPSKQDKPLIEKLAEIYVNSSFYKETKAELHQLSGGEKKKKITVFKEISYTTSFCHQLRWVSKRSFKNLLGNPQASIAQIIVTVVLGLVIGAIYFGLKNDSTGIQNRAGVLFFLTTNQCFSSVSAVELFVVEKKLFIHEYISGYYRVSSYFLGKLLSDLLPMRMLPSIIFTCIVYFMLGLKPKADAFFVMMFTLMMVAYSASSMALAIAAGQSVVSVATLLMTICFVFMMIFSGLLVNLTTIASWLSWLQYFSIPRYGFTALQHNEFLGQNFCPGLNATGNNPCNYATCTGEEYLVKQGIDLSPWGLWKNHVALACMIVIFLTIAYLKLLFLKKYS

[2] = target: ATP-dependent translocase ABCB1 (Homo sapiens, UniProt P08183); test: Inhibition of ABCB1 expressed in Kb-V1 cells after 10 mins by calcein-AM assay
[3] = target: T2, ABCG2 (Homo sapiens, UniProt Q9UNQ0); test: Inhibition of ABCG2 expressed in human MCF7/Topo cells assessed as maximal inhibitory effect at IC50 concentration by Hoechst microplate assay; settings: MCF7/Topo cells expressing ABCG2, probe Hoechst dye, read-out: INH
T2 sequence (Q9UNQ0 whole entry): T1 sequence (Q9UNQ0 whole entry)

ATP-dependent translocase ABCB1, sequence (P08183 whole entry): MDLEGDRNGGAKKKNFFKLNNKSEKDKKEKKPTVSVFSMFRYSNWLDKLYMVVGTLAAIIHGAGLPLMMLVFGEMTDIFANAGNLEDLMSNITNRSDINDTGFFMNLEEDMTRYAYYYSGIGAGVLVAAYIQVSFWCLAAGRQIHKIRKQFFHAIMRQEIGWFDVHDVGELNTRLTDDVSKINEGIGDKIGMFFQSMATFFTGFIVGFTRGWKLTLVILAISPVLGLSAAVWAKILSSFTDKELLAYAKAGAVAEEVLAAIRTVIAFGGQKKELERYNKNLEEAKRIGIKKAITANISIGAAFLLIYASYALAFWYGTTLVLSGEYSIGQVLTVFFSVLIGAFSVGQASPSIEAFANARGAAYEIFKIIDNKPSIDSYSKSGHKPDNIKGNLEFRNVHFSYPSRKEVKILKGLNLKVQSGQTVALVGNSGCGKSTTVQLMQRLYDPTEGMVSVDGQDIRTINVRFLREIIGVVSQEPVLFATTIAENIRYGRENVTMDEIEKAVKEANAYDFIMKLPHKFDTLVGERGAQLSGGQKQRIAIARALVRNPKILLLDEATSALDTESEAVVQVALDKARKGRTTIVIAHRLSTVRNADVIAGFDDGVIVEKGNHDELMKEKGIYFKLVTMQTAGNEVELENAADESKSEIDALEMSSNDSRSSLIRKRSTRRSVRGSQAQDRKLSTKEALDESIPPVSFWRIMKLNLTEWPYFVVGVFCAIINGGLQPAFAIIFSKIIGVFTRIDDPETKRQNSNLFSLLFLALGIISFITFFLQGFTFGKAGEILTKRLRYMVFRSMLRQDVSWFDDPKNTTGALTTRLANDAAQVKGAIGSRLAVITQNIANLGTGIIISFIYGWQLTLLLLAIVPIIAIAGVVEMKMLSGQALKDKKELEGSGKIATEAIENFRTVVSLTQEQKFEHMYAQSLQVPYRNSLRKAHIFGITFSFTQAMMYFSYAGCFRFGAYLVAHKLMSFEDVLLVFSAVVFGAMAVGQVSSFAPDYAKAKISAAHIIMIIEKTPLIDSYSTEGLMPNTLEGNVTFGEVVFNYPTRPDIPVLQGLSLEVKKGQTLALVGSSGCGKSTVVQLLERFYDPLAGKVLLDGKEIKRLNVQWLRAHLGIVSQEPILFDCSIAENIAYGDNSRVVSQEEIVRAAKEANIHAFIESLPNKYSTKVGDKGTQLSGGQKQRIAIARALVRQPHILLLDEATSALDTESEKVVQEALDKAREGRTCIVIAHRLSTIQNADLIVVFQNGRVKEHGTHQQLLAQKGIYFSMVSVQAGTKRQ

IC50 [1] [µM] | IC50 [2] [µM] | Emax [3] [%] | Compound
0.508 | > 50 | 61 | COCCOCCOCCOc1cc2c(cc1OC)CCN(CCc1ccc(NC(=O)c3ccc(C(=O)OC)c(NC(=O)c4ccc5ncccc5c4)c3)cc1)C2
> 5 | > 50 | – | COc1cc2c(cc1OC)CN(CCc1ccc(NC(=O)c3ccc(C(=O)O)c(NC(=O)c4ccc5ccccc5n4)c3)cc1)CC2
> 100 | > 1 | – | COc1cc2c(cc1OC)CN(CCc1ccc(NC(=O)c3ccc(C(=O)O)c(NC(=O)c4ccc5ncccc5c4)c3)cc1)CC2
> 50 | > 100 | – | COCCOCCOCCOc1cc2c(cc1OC)CN(CCc1ccc(NC(=O)c3ccc(C(=O)O)c(NC(=O)c4ccc5ccccc5n4)c3)cc1)CC2
> 50 | > 50 | – | COCCOCCOCCOc1cc2c(cc1OC)CN(CCc1ccc(NC(=O)c3ccc(C(=O)O)c(NC(=O)c4ccc5ncccc5c4)c3)cc1)CC2
6.2 | > 100 | – | COCCOCCOCCOc1cc2c(cc1OC)CCN(CCc1ccc(NC(=O)c3ccc(C(=O)O)c(NC(=O)c4ccc5ccccc5n4)c3)cc1)C2
> 50 | > 50 | – | COCCOCCOCCOc1cc2c(cc1OC)CCN(CCc1ccc(NC(=O)c3ccc(C(=O)O)c(NC(=O)c4ccc5ncccc5c4)c3)cc1)C2
0.183 | > 50 | – | COCCOCCOCCOc1cc2c(cc1OC)CN(CCc1ccc(NC(=O)c3ccc(C(=O)OC)c(NC(=O)c4ccc5ccccc5n4)c3)cc1)CC2
0.39 | > 100 | 41 | COCCOCCOCCOc1cc2c(cc1OC)CN(CCc1ccc(NC(=O)c3ccc(C(=O)OC)c(NC(=O)c4ccc5ncccc5c4)c3)cc1)CC2
0.13 | > 50 | – | COCCOCCOCCOc1cc2c(cc1OC)CCN(CCc1ccc(NC(=O)c3ccc(C(=O)OC)c(NC(=O)c4ccc5ccccc5n4)c3)cc1)C2
0.172 | > 10 | 55 | COC(=O)c1ccc(C(=O)Nc2ccc(CCN3CCc4cc(OC)c(OC)cc4C3)cc2)cc1NC(=O)c1ccc2ncccc2c1
0.059 | > 29 | – | COC(=O)c1ccc(C(=O)Nc2ccc(CCN3CCc4cc(OC)c(OC)cc4C3)cc2)cc1NC(=O)c1ccc2ccccc2n1
